Series [1] concerns Escherichia coli. Description: Antimicrobial activity against Escherichia coli K12D31 by microdilution assay. It counts as functional.
Series [2] relates to Escherichia coli. The series can be described thus: Antimicrobial activity against Escherichia coli K88 by microdilution assay. The class given is functional.
Series [3] concerns Escherichia coli. The series can be described thus: Antimicrobial activity against Escherichia coli K99 by microdilution assay. The class given is functional.
For the next series, the system named is Salmonella typhimurium. The series can be described thus: Antimicrobial activity against Salmonella enterica serovar Typhimurium IVDC C77-31 by microdilution assay. The class given is functional, Salmonella enterica subsp. enterica serovar Typhimurium.
The subject of a further series is Salmonella enteritidis. Description: Antimicrobial activity against Salmonella enterica serovar Enteritidis IVDC C79-52 by microdilution assay. The class given is functional, Salmonella enterica subsp. enterica serovar Enteritidis.
Series [4] has as its system Staphylococcus aureus. The series can be described thus: Antimicrobial activity against Staphylococcus aureus IVDC C56005 by microdilution assay. It counts as functional.
For another series, the system named is Enterococcus faecalis. The series can be described thus: Antimicrobial activity against Streptococcus faecalis IVDC C55614 by microdilution assay. The class given is functional.
For series [5], the system named is Staphylococcus aureus. Description: Antimicrobial activity against Staphylococcus aureus IVDC C56005 assessed as microbial growth inhibition at 55 degC for 20 mins. It counts as functional, organism-based.
Series [6] relates to Staphylococcus aureus. Description: Antimicrobial activity against Staphylococcus aureus IVDC C56005 assessed as microbial growth inhibition at >85 degC for 20 mins. The class given is functional, organism-based.
In series [7] the test system is Staphylococcus aureus. Description: Antimicrobial activity against Staphylococcus aureus IVDC C56005 assessed as microbial growth inhibition at pH 4 to 9. The class given is functional, organism-based.
Series [8] has as its system Staphylococcus aureus. The series can be described thus: Antimicrobial activity against Staphylococcus aureus IVDC C56005 assessed as microbial growth inhibition at pH <4.0. It counts as functional, organism-based.
The subject of series [9] is Staphylococcus aureus. The series can be described thus: Antimicrobial activity against Staphylococcus aureus IVDC C56005 assessed as microbial growth inhibition in presence of proteinase K. The class given is functional, organism-based.
For series [10], the system named is Staphylococcus aureus. Description: Antimicrobial activity against Staphylococcus aureus IVDC C56005 assessed as microbial growth inhibition in presence of trypsin. It counts as functional, organism-based.
Series [11] has as its system Staphylococcus aureus. Description: Antimicrobial activity against Staphylococcus aureus IVDC C56005 assessed as microbial growth inhibition in presence of pepsin. It counts as functional, organism-based.
Series [12] in a line: Toxicity in human RBCs assessed as induction hemolysis at 0.01 to 200 ug/mL. It counts as cell-based. The conditions noted are these: erythrocyte.

In brackets after ≈: the same amount, converted by molar mass. Activity calls are given as the source filed them. The rule behind the calls is not given here. Where a SMILES comes first, the peptide text is derived from it.

The values below come from ChEMBL document CHEMBL1649582, “Novel expression vector for secretion of cecropin AD in Bacillus subtilis with enhanced antimicrobial activity” (Antimicrob Agents Chemother, 2009).

Turning to `CC[C@H](C)[C@H](NC(=O)[C@H](CCCCN)NC(=O)[C@H](CCCCN)NC(=O)[C@H](Cc1ccccc1)NC(=O)[C@H](CC(C)C)NC(=O)[C@H](CCCCN)NC(=O)[C@H](Cc1c[nH]c2ccccc12)NC(=O)[C@@H](N)CCCCN)C(=O)N[C@@H](CCC(=O)O)C(=O)N[C@@H](CCCCN)C(=O)N[C@H](C(=O)NCC(=O)N[C@@H](CCC(N)=O)C(=O)N[C@@H](CCCNC(=N)N)C(=O)N[C@H](C(=O)N[C@@H](CCCNC(=N)N)C(=O)N[C@@H](CC(=O)O)C(=O)N[C@@H](C)C(=O)N[C@H](C(=O)N[C@H](C(=O)N[C@@H](CO)C(=O)N[C@@H](C)C(=O)NCC(=O)N1CCC[C@H]1C(=O)N[C@@H](C)C(=O)N[C@H](C(=O)N[C@@H](C)C(=O)N[C@H](C(=O)N[C@H](C(=O)N[C@@H](C)C(=O)N[C@@H](CCC(N)=O)C(=O)N[C@@H](C)C(=O)N[C@H](C(=O)N[C@@H](C)C(=O)N[C@@H](CC(C)C)C(=O)N[C@@H](C)C(=O)N[C@@H](CCCCN)C(=O)O)[C@@H](C)O)C(C)C)[C@@H](C)O)C(C)C)[C@@H](C)CC)C(C)C)C(C)C)C(C)C` [CECROPIN AD] (H-KWKLFKKIEKVGQRVRDAVISAGPAVATVAQATALAK-OH), the MIC in the series on Escherichia coli [1] came out at 1.8 µg/mL (≈ 0.456 µM); in the series on Escherichia coli [2], 2 µg/mL (≈ 0.506 µM); in the series on Escherichia coli [3], 2 µg/mL (≈ 0.506 µM); with Salmonella typhimurium, 8 µg/mL (≈ 2.02 µM); with Salmonella enteritidis, 16 µg/mL (≈ 4.05 µM); against Staphylococcus aureus [4], 0.2 µg/mL (≈ 0.0506 µM). The compound further gave a minimal inhibitory concentration (MIC) with Enterococcus faecalis of 24 µg/mL (≈ 6.07 µM). Also, the “growth inhibition (GI)” value with Staphylococcus aureus [5], in the series on Staphylococcus aureus [7], with Staphylococcus aureus [9], in the series on Staphylococcus aureus [10] and with Staphylococcus aureus [11] was “Active” each time. For the same compound, the “growth inhibition (GI)” value in the series with Staphylococcus aureus [6] and in the series on Staphylococcus aureus [8] was “inactive” each time. Further, the Activity result in [12] is “Non-toxic”.
